The text below walks through data of patent US5200404A, “3-tetrazolylthiomethyl cephalosporin antibiotics” (ICI Pharma, priority 1990, dated 1993).

The subject of data set [1] is Strep. pyogenes (A8681018). Description: MIC by agar-dilution, Diagnostic Sensitivity Test agar. In kind it is cell-based. The note with it: Streptococcus pyogenes. An excerpt:
(§1) The following results were obtained for Example 1 and two comparative compounds on a standard in vitro test system using Diagnostic Sensitivity Test agar medium. The antibacterial activity is described in terms of the minimum inhibitory concentration (MIC) determined by the agar-dilution technique with an inoculum size of 10^4 CFU/spot.

Data set [2] relates to P. aeruginosa DR18SH(A81011020). The description is as above. In kind it is cell-based. The note with it: Pseudomonas aeruginosa.
Text: as §1

In data set [3] the test system is K. oxytoca D1^+ (A8395056). The description is as above. In kind it is cell-based. The note with it: Klebsiella oxytoca.
Text: as §1

In data set [4] the test system is Ent. cloacae DR(A8401109). Described as above. In kind it is cell-based. The note with it: Enterobacter cloacae, inoculum 10^4 CFU/spot.
Text: as §1

The test system of the next data set is Pr. morganii (A8433001). Described as above. In kind it is cell-based. The note with it: Morganella morganii, inoculum 10^4 CFU/spot.
Text: as §1

The subject of data set [5] is P. aeruginosa PU21(A8101028). The data set is described as above. In kind it is cell-based. The note with it: Pseudomonas aeruginosa.
Text: as §1

In data set [6] the test system is Pr. morganii DR(A8433062). The description is as above. In kind it is cell-based. The note with it: Morganella morganii, inoculum 10^4 CFU/spot.
Text: as §1

Another data set has as its system P. stuartii DR(A8382031). The data set is described as above. In kind it is cell-based. The note with it: Providencia stuartii.
Text: as §1

The test system of the next data set is S. dublin (A8369001). The data set is described as above. The note with it: Salmonella enterica. In kind it is cell-based.
Text: as §1

The test system of data set [7] is Serr. marcesens (A8421003). The description is as above. The note with it: inoculum 10^4 CFU/spot. In kind it is cell-based.
Text: as §1

Data set [8] deals with Citro. freundii DR(A8382031). The data set is described as above. The note with it: Citrobacter freundii. In kind it is cell-based.
Text: as §1

Data set [9] deals with P. aeruginosa 18S(A8101024). The description is as above. In kind it is cell-based. The note with it: Pseudomonas aeruginosa.
Text: as §1

Data set [10] relates to Ent. cloacae P99-(A8401054). The data set is described as above. In kind it is cell-based. The note with it: Enterobacter cloacae.
Text: as §1

In data set [11] the test system is E. coli JS3 RTEM(A8341135). Described as above. In kind it is cell-based. The note with it: Escherichia coli.
Text: as §1

The subject of data set [12] is Strep. pneumoniae (A8671001). The data set is described as above. In kind it is cell-based. The note with it: Streptococcus pneumoniae.
Text: as §1

Data set [13] deals with Citro. freundii DR(A8382034). The data set is described as above. In kind it is cell-based. The note with it: Citrobacter freundii, inoculum 10^4 CFU/spot.
Text: as §1

The test system of another data set is A. anitratus (A8322001). The description is as above. In kind it is cell-based. The note with it: Acinetobacter calcoaceticus.
Text: as §1

Data set [14] has as its system Serr. marcesens DR(A8421078). The data set is described as above. In kind it is cell-based. The note with it: inoculum 10^4 CFU/spot.
Text: as §1

Data set [15] has as its system Ent. cloacae DR(A8401108). The data set is described as above. In kind it is cell-based. The note with it: Enterobacter cloacae, inoculum 10^4 CFU/spot.
Text: as §1

In another data set the test system is E. coli DCO(A8341098). The data set is described as above. In kind it is cell-based. The note with it: Escherichia coli, inoculum 10^4 CFU/spot.
Text: as §1

Another data set is described as follows: half-life in marmosets. In kind it is in vivo. As to the method: when dosed to marmosets at 3 mg/kg.
For data set [16], the system named is Ent. cloacae P99+(A8401053). The experiment in a line: MIC by agar-dilution, Diagnostic Sensitivity Test agar. In kind it is cell-based. The note with it: Enterobacter cloacae.
Text: as §1

Structures are written as SMILES. ≈ marks a conversion by molar mass, not a printed value. Read-outs that look alike come from different tables or passages of the source.

For the compound `CC(C)(O/N=C(\C(=O)N[C@@H]1C(=O)N2C(C(=O)[O-])=C(C[n+]3ccccc3)CS[C@H]12)c1csc(N)n1)C(=O)O` [(B), ceftazidime, reference compound], the MIC in [1] amounted to 0.125 µg/mL (≈ 0.229 µM); in data set [2] it was 16 µg/mL (≈ 29.3 µM); in data set [3], 0.5 µg/mL (≈ 0.915 µM); in [4], 32 µg/mL (≈ 58.5 µM); against Pr. morganii (A8433001) it was 0.06 µg/mL (≈ 0.11 µM); in data set [5], 1 µg/mL (≈ 1.83 µM). Further, the MIC in data set [6] was 16 µg/mL (≈ 29.3 µM); against P. stuartii DR(A8382031), 4 µg/mL (≈ 7.32 µM); with S. dublin (A8369001), 0.125 µg/mL (≈ 0.229 µM); in data set [7], 0.25 µg/mL (≈ 0.457 µM); in [8] it was 128 µg/mL (≈ 234 µM); in data set [9], 2 µg/mL (≈ 3.66 µM). Besides, the MIC in data set [10] was 0.125 µg/mL (≈ 0.229 µM); in data set [11], 0.06 µg/mL (≈ 0.11 µM); in [12] it was 0.125 µg/mL (≈ 0.229 µM); in [13], 64 µg/mL (≈ 117 µM); in the data set on A. anitratus (A8322001), 16 µg/mL (≈ 29.3 µM); in data set [14] it was 0.5 µg/mL (≈ 0.915 µM). Besides, the MIC is 32 µg/mL (≈ 58.5 µM) in data set [15] and 0.125 µg/mL (≈ 0.229 µM) with E. coli DCO(A8341098).
With `CC(C)(O/N=C(\C(=O)NC1C(=O)N2C(C(=O)O)=C(CSc3nnnn3-c3cc(O)c(O)c(Cl)c3CC(=O)O)CS[C@H]12)c1csc(N)n1)C(=O)O` (stereo partly shown) [Example 1, 7-[2-(2-Aminothiazol-4-yl)-2-((Z)-1-carboxy-1-methylethoxyimino)acetamido]-3-[(1-(2-carboxymethyl-3-chloro-4,5-dihydroxyphenyl)tetrazol-5-yl)thiomethyl]ceph-3-em-4-carboxylic acid], the “half-life (t 1/2) compared with representative compounds of EP-A-272827” value in the data set “half-life in marmosets” (in words) is “substantially and significantly longer”. For the same compound, the half-life in the data set “half-life in marmosets” (marmoset, in vivo, 3 mg/kg) was 20.7 h. In addition, the MIC came out at 0.5 µg/mL (≈ 0.649 µM) in data set [1] (Strep. pyogenes (A8681018), inoculum 10^4 CFU/spot, read-out: MIC); 0.016 µg/mL (≈ 0.0208 µM) in [2] (P. aeruginosa DR18SH(A81011020), inoculum 10^4 CFU/spot, read-out: MIC); 0.004 µg/mL (≈ 0.00519 µM) in [3] (K. oxytoca D1^+ (A8395056), inoculum 10^4 CFU/spot, read-out: MIC); 0.125 µg/mL (≈ 0.162 µM) in data set [4]; 0.008 µg/mL (≈ 0.0104 µM) in the data set with Pr. morganii (A8433001); 0.008 µg/mL (≈ 0.0104 µM) in [5] (P. aeruginosa PU21(A8101028), inoculum 10^4 CFU/spot, read-out: MIC). Also, the minimal inhibitory concentration (MIC) in data set [6] came to 0.06 µg/mL (≈ 0.0779 µM); in the data set with P. stuartii DR(A8382031) (P. stuartii DR(A8382031), inoculum 10^4 CFU/spot, read-out: MIC), 0.03 µg/mL (≈ 0.039 µM); with S. dublin (A8369001) (S. dublin (A8369001), inoculum 10^4 CFU/spot, read-out: MIC), 0.004 µg/mL (≈ 0.00519 µM); in data set [16] it was 1 µg/mL (≈ 1.3 µM); in [7], 0.008 µg/mL (≈ 0.0104 µM); in data set [8] (Citro. freundii DR(A8382031), inoculum 10^4 CFU/spot, read-out: MIC), 0.25 µg/mL (≈ 0.325 µM). The MIC in data set [9] (P. aeruginosa 18S(A8101024), inoculum 10^4 CFU/spot, read-out: MIC) was 0.004 µg/mL (≈ 0.00519 µM); in data set [10] (Ent. cloacae P99-(A8401054), inoculum 10^4 CFU/spot, read-out: MIC), 0.125 µg/mL (≈ 0.162 µM); in data set [11], 0.001 µg/mL (≈ 0.0013 µM); in [12] (Strep. pneumoniae (A8671001), inoculum 10^4 CFU/spot, read-out: MIC) it was 0.03 µg/mL (≈ 0.039 µM); in data set [13] it was 0.5 µg/mL (≈ 0.649 µM); in the data set with A. anitratus (A8322001) (A. anitratus (A8322001), inoculum 10^4 CFU/spot, read-out: MIC) it was 0.06 µg/mL (≈ 0.0779 µM). For the same compound, the MIC in data set [14] came to 0.008 µg/mL (≈ 0.0104 µM); in data set [15] it was 0.25 µg/mL (≈ 0.325 µM); against E. coli DCO(A8341098), 0.002 µg/mL (≈ 0.0026 µM).
